Test results as given in publication PMC3360617, “Pan-Pathway Based Interaction Profiling of FDA-Approved Nucleoside and Nucleobase Analogs with Enzymes of the Human Nucleotide Metabolism” (PLoS ONE, 2012).

Tests used:
[1] = molecular target: T1, deoxycytidine kinase (Homo sapiens, UniProt P27707); experiment: thermal shift assay (DSLS), concentration-dependent; format: binding; details: read-out: 500 μM NA (+1 mM ATP)
T1 construct: gene DCK

[2] = molecular target: T2, Guanine deaminase (Homo sapiens, UniProt Q9Y2T3); experiment: as above; format: binding
T2 construct: gene GDA
T2 sequence (Q9Y2T3 1-454): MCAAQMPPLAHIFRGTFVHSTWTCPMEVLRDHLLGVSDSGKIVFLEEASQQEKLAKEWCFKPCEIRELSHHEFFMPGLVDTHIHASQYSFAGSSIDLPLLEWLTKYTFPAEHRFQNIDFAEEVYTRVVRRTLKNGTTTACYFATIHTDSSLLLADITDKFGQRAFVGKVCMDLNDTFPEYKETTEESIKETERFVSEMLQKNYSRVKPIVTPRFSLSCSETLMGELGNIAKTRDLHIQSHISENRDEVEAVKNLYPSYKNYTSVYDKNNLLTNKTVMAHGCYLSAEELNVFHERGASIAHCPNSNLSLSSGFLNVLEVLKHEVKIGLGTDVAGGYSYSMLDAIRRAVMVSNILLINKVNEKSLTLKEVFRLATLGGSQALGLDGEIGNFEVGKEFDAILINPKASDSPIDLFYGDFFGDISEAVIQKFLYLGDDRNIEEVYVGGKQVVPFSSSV

[3] = molecular target: T3, Uridine phosphorylase 1 (Homo sapiens, UniProt Q16831); experiment: as above; format: binding; details: read-out: delta_Tm
T3 construct: gene UPP1
T3 sequence (Q16831 whole entry): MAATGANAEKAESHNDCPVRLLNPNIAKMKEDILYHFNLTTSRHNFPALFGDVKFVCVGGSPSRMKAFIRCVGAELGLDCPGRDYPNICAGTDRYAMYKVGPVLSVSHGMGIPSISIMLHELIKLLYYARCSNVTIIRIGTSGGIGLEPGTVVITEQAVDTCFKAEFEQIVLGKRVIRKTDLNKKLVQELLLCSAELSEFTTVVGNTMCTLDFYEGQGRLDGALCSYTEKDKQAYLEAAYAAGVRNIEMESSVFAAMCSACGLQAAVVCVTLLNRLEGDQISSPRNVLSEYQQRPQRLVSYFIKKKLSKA

[4] = molecular target: T3, Uridine phosphorylase 1; experiment: thermal shift assay (DSLS), concentration-dependent; enhanced by […] ribose-1-phosphate; format: binding; details: read-out: ΔTagg (NA+R1P)
[5] = molecular target: T2, Guanine deaminase; experiment: co-crystal structure at […] Å; thermal shift (DSLS), concentration-dependent; format: binding; details: read-out: delta_Tm
[6] = molecular target: T3, Uridine phosphorylase 1; experiment: HPLC enzyme kinetics with uridine (Lineweaver-Burk); also thermal shift ([…]°C at […]); format: biochemical

T1 sequence (P27707 whole entry): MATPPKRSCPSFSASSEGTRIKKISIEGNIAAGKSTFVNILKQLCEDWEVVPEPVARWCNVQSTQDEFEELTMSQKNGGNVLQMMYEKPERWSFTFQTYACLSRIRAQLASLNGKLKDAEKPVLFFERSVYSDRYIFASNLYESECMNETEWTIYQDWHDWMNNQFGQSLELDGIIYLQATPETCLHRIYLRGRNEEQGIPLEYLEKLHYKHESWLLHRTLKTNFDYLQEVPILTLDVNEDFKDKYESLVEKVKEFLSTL

Nc1ncn([C@H]2C[C@H](O)[C@@H](CO)O2)c(=O)n1 [Decitabine]
ΔTm at 500 µM [1]: 7.29 °C

Nc1ccn([C@@H]2O[C@H](CO)[C@@H](O)C2(F)F)c(=O)n1 [Gemcitabine]
ΔTm at 500 µM [1]: 5.22 °C

Nc1nc2c(ncn2COCCO)c(=O)[nH]1 [aciclovir]
thermal shift assay (DSLS), concentration-dependent [2]: Interactions were detected between GDA and valaciclovir, aciclovir, penciclovir, ganciclovir, thioguanine and mercaptopurine

O=c1[nH]c(=O)n([C@H]2C[C@H](O)[C@@H](CO)O2)cc1I [idoxuridine]
ΔTm at 500 µM [3]: 1.72 °C

Nc1nc2c(ncn2CCC(CO)CO)c(=O)[nH]1 [penciclovir]
thermal shift assay (DSLS), concentration-dependent [2]: Thioguanine, ganciclovir, aciclovir, penciclovir, valaciclovir, flucytosine and idoxuridine showed concentration-dependent stabilization of GDA

Nc1nc2nc[nH]c2c(=S)[nH]1 [thioguanine]
thermal shift assay (DSLS), concentration-dependent [2]: followed in decreasing order by thioguanine, acyclovir, penciclovir, ganciclovir and mercaptopurine

O=c1[nH]c(=O)n([C@H]2C[C@H](O)[C@@H](CO)O2)cc1C(F)(F)F [trifluridine]
ΔTm at 500 µM [4]: 3.78 °C

CC(C)[C@H](N)C(=O)OCCOCn1cnc2c(=O)[nH]c(N)nc21 [valaciclovir]
ΔTm at 1000 µM [5]: ~7 °C

Nc1ncnc2c1ncn2[C@@H]1O[C@H](CO)[C@@H](O)[C@@H]1O [vidarabine]
Ki [6]: 390 µM
